Converted amounts (≈) assume the structure as drawn. Where two headings read alike, the source gives them in different places.
Key:
[1] = test system: Staph. aureus A-9537 and 50% serum; test: MIC, tube dilution, Staph. aureus A9537 + 50% serum; format: cell-based, Staphylococcus aureus; conditions: Staphylococcus aureus, overnight 37° C., read-out: Minimum Inhibitory Concentration (M.I.C.)
Excerpt: (§1) Representative compounds of the present invention were subjected to in vitro antibiotic screening against a variety of microorganisms.

[2] = test system: K. pneumoniae A15130; test: In vivo protection of mice, lethal infection with K. pneumoniae A15130; conditions: Klebsiella pneumoniae, IM, 2 treatments, 1.2 × 10^3 organisms, read-out: PD50
Method: (§2) Representative compounds of the present invention were also tested in vivo in mice and their PD50 (dose of compound in mg/kg required to protect 50% of the treated mice against an otherwise lethal infection of a micro-organism) values determined with respect to the test organisms shown below.

[3] = test system: S. pneumoniae A9585; test: In vivo protection of mice, lethal infection with S. pneumoniae A9585; conditions: Streptococcus pneumoniae, A9585, im, 2 treatments, read-out: PD50
Method: as §2

[4] = test system: Staph. aureus (Meth-Res) A-15097; test: MIC, tube dilution, Staphylococcus aureus A15097 (Meth-Res); format: cell-based; conditions: Staphylococcus aureus, Staph. aureus A15097 (Meth-Res); overnight 37° C.; read-out: Minimum Inhibitory Concentration (M.I.C.)
Excerpt: as §1

[5] = test system: Ps. aeruginosa A-9843A; test: MIC, tube dilution, Pseudomonas aeruginosa A9843A; format: cell-based; conditions: Pseudomonas aeruginosa, A9843A, read-out: Minimum Inhibitory Concentration (M.I.C.), Pseudomonas aeruginosa A9843A; overnight 37° C.
Excerpt: as §1

[6] = test system: E. coli A15119; test: In vivo protection of mice, lethal infection with E. coli A15119; conditions: Escherichia coli, IM, 2 treatments, 7.4 × 10^5 organisms, read-out: PD50
Method: as §2

[7] = test system: Pr. mirabilis A-9900; test: MIC, tube dilution, Proteus mirabilis A9900; format: cell-based; conditions: Proteus mirabilis, A9900, Proteus mirabilis A9900; overnight 37° C.; read-out: Minimum Inhibitory Concentration (M.I.C.)
Excerpt: as §1

[8] = test system: K. pneumoniae A-15130; test: MIC, tube dilution, Klebsiella pneumoniae A15130; format: cell-based; conditions: Klebsiella pneumoniae, A15130, K. pneumoniae A15130; overnight 37° C.; read-out: Minimum Inhibitory Concentration (M.I.C.)
Excerpt: as §1

[9] = test system: Str. pneumoniae A-9585; test: MIC, tube dilution, Streptococcus pneumoniae A9585; format: cell-based; conditions: Streptococcus pneumoniae, A9585, Str. pneumoniae A9585; overnight 37° C., Nutrient Broth; read-out: Minimum Inhibitory Concentration (M.I.C.)
Excerpt: as §1

[10] = test system: Ser. marcescens A-20019; test: MIC, tube dilution, Serratia marcescens A20019; format: cell-based; conditions: Serratia marcescens, A20019, Serratia marcescens A20019; overnight 37° C.; read-out: Minimum Inhibitory Concentration (M.I.C.)
Excerpt: as §1

[11] = test system: E. coli A-15119; test: MIC, tube dilution, Escherichia coli A15119; format: cell-based; conditions: Escherichia coli, A15119, E. coli A15119; overnight 37° C.; read-out: Minimum Inhibitory Concentration (M.I.C.)
Excerpt: as §1

[12] = test system: S. aureus A9537; test: In vivo protection of mice, lethal infection with S. aureus A9537; conditions: Staphylococcus aureus, 2 treatments, read-out: PD50
Method: as §2

[13] = test system: Proteus rettgeri A21203; test: MIC, tube dilution, Proteus rettgeri A21203; format: cell-based; conditions: Providencia rettgeri, A21203, Proteus rettgeri A21203; overnight 37° C.; read-out: Minimum Inhibitory Concentration (M.I.C.)
Excerpt: as §1

[14] = test system: Str. pyogenes A-9604; test: MIC, tube dilution, Streptococcus pyogenes A9604; format: cell-based; conditions: Streptococcus pyogenes, A9604, Str. pyogenes A9604; overnight 37° C., Nutrient Broth; read-out: Minimum Inhibitory Concentration (M.I.C.)
Excerpt: as §1

[15] = test system: E. coli A-20341-1; test: MIC, tube dilution, Escherichia coli A20341-1; format: cell-based; conditions: Escherichia coli, A203411; E. coli A20341-1; overnight 37° C.; read-out: Minimum Inhibitory Concentration (M.I.C.)
Excerpt: as §1

[16] = test system: S. pyogenes A9604; test: In vivo protection of mice, lethal infection with S. pyogenes A9604; conditions: Streptococcus pyogenes, A9604, im, 2 treatments, read-out: PD50
Method: as §2

[17] = test system: Ps. aeruginosa A-21213; test: MIC, tube dilution, Pseudomonas aeruginosa A21213; format: cell-based; conditions: Pseudomonas aeruginosa A21213; overnight 37° C.; read-out: Minimum Inhibitory Concentration (M.I.C.)
Excerpt: as §1

[18] = test system: Ent. cloacae A-9659; test: MIC, tube dilution, Enterobacter cloacae A9659; format: cell-based; conditions: Enterobacter cloacae, A9659, Enterobacter cloacae A9659; overnight 37° C.; read-out: Minimum Inhibitory Concentration (M.I.C.)
Excerpt: as §1

[19] = test system: Str. faecalis A-20688; test: MIC, tube dilution, Streptococcus faecalis A20688; format: cell-based; conditions: Enterococcus faecalis, A20688, Str. faecalis A20688; overnight 37° C.; read-out: Minimum Inhibitory Concentration (M.I.C.)
Excerpt: as §1

[20] = test system: Proteus mirabilis A9900; test: In vivo protection of mice, lethal infection with Proteus mirabilis A9900; conditions: IM, 2 treatments, 1.3 × 10^7 organisms, read-out: PD50
Method: as §2

[21] = test system: Pr. morganii A-15153; test: MIC, tube dilution, Proteus morganii A15153; format: cell-based; conditions: Morganella morganii, A15153, Proteus morganii A15153; overnight 37° C.; read-out: Minimum Inhibitory Concentration (M.I.C.)
Excerpt: as §1

[22] = test system: Staph. aureus (Pen-Res) A-9606; test: MIC, tube dilution, Staphylococcus aureus A9606 (Pen-Res); format: cell-based; conditions: Staphylococcus aureus, Staph. aureus A9606 (Pen-Res); overnight 37° C.; read-out: Minimum Inhibitory Concentration (M.I.C.)
Excerpt: as §1

[23] = test system: Ent. cloacae A-9656; test: MIC, tube dilution, Enterobacter cloacae A9656; format: cell-based; conditions: Enterobacter cloacae, A9656, Enterobacter cloacae A9656; overnight 37° C.; read-out: Minimum Inhibitory Concentration (M.I.C.)
Excerpt: as §1

[24] = Mouse blood levels after intramuscular administration; format: in vivo; conditions: average of 6 mice, read-out: Mouse blood level
Method: Mouse blood levels after intramuscular administration of representative compounds of the present invention were determined and are reported in the table below.

In the case of `NCCCCC1=C(C(=O)O)N2C(=O)CC2S1` (centres unmarked) [Example 73, 2-(4'-Aminobutyl)-penem-3-carboxylic Acid], the MIC [1] is reported as 1 µg/mL, the ED50 [2] is reported as > 100 mg/kg and the ED50 ([3]; 3 × 10^4 organisms) is reported as 1.2 mg/kg. For the same compound, the ED50 ([3]; 3.4 × 10^4 organisms) was 1.56 mg/kg, the MIC [4] was 16 µg/mL (≈ 66 µM) and the MIC [5] was > 125 µg/mL. It also gave an ED50 [6] of 25 mg/kg, an MIC [7] of 8 µg/mL (≈ 33 µM) and an MIC [8] of 32 µg/mL (≈ 132 µM). The MIC [9] was 0.13 µg/mL (≈ 0.537 µM), the MIC [10] was 16 µg/mL (≈ 66 µM) and the MIC [11] was 8 µg/mL (≈ 33 µM). The ED50 ([12]; A9537, im, IM, 1 × 10^6 organisms) was 0.2 mg/kg, the ED50 ([12]; A9537, im, IM, 6.8 × 10^5 organisms) was 0.2 mg/kg and the ED50 ([12]; A9537, im, IM, 8 × 10^5 organisms) was 0.2 mg/kg. For the same compound, the ED50 ([12]; A9537, po, PO, 1 × 10^6 organisms) was 0.5 mg/kg, the MIC [13] was 16 µg/mL (≈ 66 µM) and the MIC [14] was 0.25 µg/mL (≈ 1.03 µM). The MIC [15] was 125 µg/mL (≈ 516 µM), the ED50 ([16]; 1.2 × 10^3 organisms) was 0.89 mg/kg and the ED50 ([16]; 8 × 10^3 organisms) was 0.51 mg/kg. For the same compound, the MIC [17] was > 125 µg/mL, the MIC [18] was 63 µg/mL (≈ 260 µM) and the MIC [19] was 32 µg/mL (≈ 132 µM). For the same compound, the ED50 [20] was > 100 mg/kg, the MIC [21] was 32 µg/mL (≈ 132 µM) and the MIC [22] was 32 µg/mL (≈ 132 µM). The MIC [23] was 32 µg/mL (≈ 132 µM), the concentration at 10 min ([24]; 10 minutes after IM 40 mg/kg) was 37900 ng/mL and the concentration at 20 min ([24]; 20 minutes after IM 40 mg/kg) was 30800 ng/mL. It also gave a concentration at 0.5 h ([24]; 30 minutes after IM 40 mg/kg) of 21200 ng/mL, a concentration at 0.75 h ([24]; 45 minutes after IM 40 mg/kg) of 13200 ng/mL and a concentration at 1 h ([24]; 60 minutes after IM 40 mg/kg) of 8400 ng/mL. The concentration at 1.5 h ([24]; 90 minutes after IM 40 mg/kg) was 3400 ng/mL and the concentration at 2 h ([24]; 120 minutes after IM 40 mg/kg) was < 3000 ng/mL.

From patent US4272437A, “Antibacterial agents, and 4-thio azetidinone intermediates” (priority 1979, dated 1981)
